This note sets out measurements from ChEMBL document CHEMBL3046242, “Synthesis and evaluation of thiopyrano[3,4-c]quinoline-9-carboxamide derivatives as inhibitors of poly(ADP-ribose) polymerase-1 (PARP-1)” (Med Chem Res, 2012).

Molecules are shown by their SMILES. Some results are limits rather than exact numbers.

The target of data set [1] is T1, Poly [ADP-ribose] polymerase 1 (Homo sapiens, UniProt P09874). Nature of the data set: Inhibition of PARP-1 (unknown origin) assessed as inhibition of biotinylated poly(ADP-ribose) onto histone proteins after 30 min by colorimetry.
T1 sequence (P09874 whole entry): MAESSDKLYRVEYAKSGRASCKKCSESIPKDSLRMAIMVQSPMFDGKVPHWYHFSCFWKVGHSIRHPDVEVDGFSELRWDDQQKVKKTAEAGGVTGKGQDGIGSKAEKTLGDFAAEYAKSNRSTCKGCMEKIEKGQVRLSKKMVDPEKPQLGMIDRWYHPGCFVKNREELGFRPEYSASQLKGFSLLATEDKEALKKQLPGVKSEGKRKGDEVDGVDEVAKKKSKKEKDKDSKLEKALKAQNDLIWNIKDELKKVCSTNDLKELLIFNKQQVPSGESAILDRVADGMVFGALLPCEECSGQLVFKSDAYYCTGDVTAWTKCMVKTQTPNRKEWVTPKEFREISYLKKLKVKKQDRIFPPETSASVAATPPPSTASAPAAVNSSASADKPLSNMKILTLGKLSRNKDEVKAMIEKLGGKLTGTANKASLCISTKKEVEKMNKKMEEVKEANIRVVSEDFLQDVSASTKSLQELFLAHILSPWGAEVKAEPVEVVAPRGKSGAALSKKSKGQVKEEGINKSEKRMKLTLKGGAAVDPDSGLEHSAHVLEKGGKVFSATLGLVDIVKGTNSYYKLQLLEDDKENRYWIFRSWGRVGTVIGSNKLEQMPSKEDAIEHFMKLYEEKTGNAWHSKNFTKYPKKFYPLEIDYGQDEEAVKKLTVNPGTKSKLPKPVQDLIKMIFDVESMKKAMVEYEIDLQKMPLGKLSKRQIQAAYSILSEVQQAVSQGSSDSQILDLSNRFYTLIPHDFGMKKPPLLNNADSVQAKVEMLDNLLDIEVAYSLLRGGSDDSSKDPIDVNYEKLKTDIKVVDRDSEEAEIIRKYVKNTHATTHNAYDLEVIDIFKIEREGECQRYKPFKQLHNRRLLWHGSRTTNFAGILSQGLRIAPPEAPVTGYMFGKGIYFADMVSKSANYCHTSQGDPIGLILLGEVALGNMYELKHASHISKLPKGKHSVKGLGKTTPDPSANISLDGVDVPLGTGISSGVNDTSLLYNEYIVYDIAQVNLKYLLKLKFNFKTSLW
The target in data set [2] is T1, Poly [ADP-ribose] polymerase 1. Put plainly: Inhibition of PARP-1 (unknown origin) expressed in CHO-K1 cells assessed as depletion of NAD(P)H after 2 hr by CCK-8 assay. Type of data set: cell-based.
Data set [3] is described as follows: Solubility of the compound in water. It is filed as physicochemical.
Data set [4] in a line: Half life in Homo sapiens (human) liver microsomes at 1 uM by LC/MS/MS analysis. Type of data set: ADME.
Data set [5] in a line: Half life in Rattus norvegicus Sprague-Dawley (rat) at 5 mg/kg, iv. Type of data set: ADME, organism-based. On the set-up: dose 5 mg/kg, route intravenous. The conditions noted are these: in vivo.
Data set [6] in a line: Clearance in Rattus norvegicus Sprague-Dawley (rat) at 5 mg/kg, iv. Type of data set: ADME, organism-based. Further details: dose 5 mg/kg, route intravenous. The conditions noted are these: in vivo.
Data set [7] is described as follows: AUC (0 to infinity) in Rattus norvegicus Sprague-Dawley (rat) at 5 mg/kg, iv. On the set-up: time infinity, dose 5 mg/kg, route intravenous. The conditions noted are these: plasma. Type of data set: ADME, organism-based.

With `CCCC(C)N1CCN(C(=O)c2ccc3[nH]c(=O)c4c(c3c2)CCSC4)CC1` (configuration not stated), the IC50 in data set [1] came out at 40 nM. Moreover, the ED50 in data set [2] was 0.46 µM.
Turning to `O=C(c1ccc2[nH]c(=O)c3c(c2c1)CCSC3)N1CCN(c2ccccc2)CC1`, in data set [1], the IC50 is 234 nM. In data set [2], the ED50 turned out to be 1.29 µM.
As to `NCCNC(=O)c1ccc2[nH]c(=O)c3c(c2c1)CCSC3`, the concentration for half-maximal inhibition (IC50) in data set [1] is 17 nM. Besides, in data set [2], the ED50 was greater than 30 µM.
`CCN1CCN(C(=O)c2ccc3[nH]c(=O)c4c(c3c2)CCSC4)CC1`: the IC50 in data set [1] was 47 nM. Further, in data set [2], the ED50 amounted to 2 µM.
Taken in the same sequence, the figures for `O=C(c1ccc2[nH]c(=O)c3c(c2c1)CCSC3)N1CCCCC1` were 175 nM and 1.26 µM.
For `O=C(NCCN1CCN(c2ccccc2)CC1)c1ccc2[nH]c(=O)c3c(c2c1)CCSC3`, the IC50 in data set [1] came to 166 nM. The ED50 in data set [2] worked out at 4.02 µM.
Take `CN1CCN(C(=O)c2ccc3[nH]c(=O)c4c(c3c2)CCSC4)CC1`: in data set [1], the IC50 was 188 nM. In data set [2], the ED50 worked out at 2.53 µM.
In data set [3], `CCCN1CCN(C(=O)c2ccc3[nH]c(=O)c4c(c3c2)CCSC4)CC1` yielded a solubility greater than 1000 µg/mL. In addition, the IC50 in data set [1] was 45 nM. Also, in data set [4], the half-life at 1 µM stood at 41.7 min. In data set [2], the ED50 amounted to 0.54 µM. For the same compound, in data set [5], the half-life was 84 min. Further, the clearance in data set [6] was 63.3 mL/min/kg. For the same compound, the AUC(0-inf) in data set [7] was 1300 ng·h/mL.
Take `CC(C)CCN1CCN(C(=O)c2ccc3[nH]c(=O)c4c(c3c2)CCSC4)CC1`: in data set [1], the IC50 was 65 nM. This compound also showed a half-life at 1 µM in data set [4] of 15.9 min. In data set [2], the ED50 was found to be 0.84 µM.
For the compound `O=C(c1ccc2[nH]c(=O)c3c(c2c1)CCSC3)N1CCN(CCCC(F)(F)F)CC1`, in data set [1], the IC50 is 134 nM. Moreover, the ED50 in data set [2] was determined as 2.41 µM.
As for `O=C(NCCN1CCNCC1)c1ccc2[nH]c(=O)c3c(c2c1)CCSC3`, the IC50 in data set [1] turned out to be 36 nM. In addition, the ED50 in data set [2] is greater than 30 µM.
Take `O=C(c1ccc2[nH]c(=O)c3c(c2c1)CCSC3)N1CCN(CCc2ccccc2)CC1`: the IC50 in data set [1] stood at 19 nM. Also, in data set [2], the ED50 worked out at 2.19 µM.
Regarding `CCCCN1CCN(C(=O)c2ccc3[nH]c(=O)c4c(c3c2)CCSC4)CC1`, the IC50 in data set [1] came to 42 nM. For the same compound, in data set [2], the ED50 was 0.77 µM.
Take `O=C(c1ccc2[nH]c(=O)c3c(c2c1)CCSC3)N1CCN(Cc2ccccc2)CC1`: in data set [1], the IC50 came to 187 nM. In data set [2], the ED50 was 2.51 µM.
`NCCCCNC(=O)c1ccc2[nH]c(=O)c3c(c2c1)CCSC3`: the IC50 in data set [1] is 27 nM. Also, the ED50 in data set [2] is greater than 30 µM.
Taken in the same sequence, the figures for `CCCCCCN1CCN(C(=O)c2ccc3[nH]c(=O)c4c(c3c2)CCSC4)CC1` were 94 nM and 2.91 µM.
For the compound `O=C(O)c1ccc2[nH]c(=O)c3c(c2c1)CCSC3`, in data set [1], the IC50 worked out at 78 nM.
In turn, `O=C1CC2(CCCC2)CC(=O)N1CCCCN1CCN(c2ncccn2)CC1` [BUSPIRONE] yielded a half-life at 1 µM in data set [4] of 4 min.
As to `CCOC(=O)c1ccc2[nH]c(=O)c3c(c2c1)CCSC3`, the IC50 in data set [1] came out at 536 nM.
Consider `O=C(NCCN1CCCCC1)c1ccc2[nH]c(=O)c3c(c2c1)CCSC3`, for which the IC50 in data set [1] came out at 58 nM. In addition, the ED50 in data set [2] amounted to 2.81 µM.
On to `O=C(NCCN1CCOCC1)c1ccc2[nH]c(=O)c3c(c2c1)CCSC3`, for which the half-inhibitory concentration (IC50) in data set [1] amounted to 60 nM. The ED50 in data set [2] is greater than 30 µM.
For `O=C(NCCN1CCN(c2ccncc2)CC1)c1ccc2[nH]c(=O)c3c(c2c1)CCSC3`, the IC50 in data set [1] amounted to 44 nM. Besides, the ED50 in data set [2] was greater than 30 µM.
For `O=C(c1ccc2[nH]c(=O)c3c(c2c1)CCSC3)N1CCN(C2CCCCC2)CC1`, the IC50 in data set [1] came to 68 nM. Also, the ED50 in data set [2] is 0.32 µM.
Turning to `O=C(c1ccc2[nH]c(=O)c3c(c2c1)CCSC3)N1CCN(c2ccncc2)CC1`, in data set [1], the IC50 amounted to 20 nM. Also, the ED50 in data set [2] was greater than 30 µM.
For the compound `O=C(c1ccc2[nH]c(=O)c3c(c2c1)CCSC3)N1CCN(C2CCCC2)CC1`, the IC50 in data set [1] turned out to be 47 nM. In data set [4], this compound gave a half-life at 1 µM of 14.5 min. Moreover, in data set [2], the ED50 turned out to be 0.55 µM.
In the case of `NCCCNC(=O)c1ccc2[nH]c(=O)c3c(c2c1)CCSC3`, the half-inhibitory concentration (IC50) in data set [1] was 30 nM. The ED50 in data set [2] was greater than 30 µM.
On to `O=C(c1ccc2[nH]c(=O)c3c(c2c1)CCSC3)N1CCNCC1`, for which the IC50 in data set [1] worked out at 8 nM. The ED50 in data set [2] is greater than 30 µM.
Consider `O=C(c1ccc2[nH]c(=O)c3c(c2c1)CCSC3)N1CCN(C2CCCCCC2)CC1`, for which, in data set [1], the IC50 was 67 nM. Besides, in data set [2], the ED50 was found to be 0.5 µM.
Turning to `CCCCCN1CCN(C(=O)c2ccc3[nH]c(=O)c4c(c3c2)CCSC4)CC1`, the IC50 in data set [1] stood at 79 nM. Besides, the ED50 in data set [2] amounted to 0.61 µM.
